We go through 14 compounds from PubChem BioAssay (NCI).

Several values for one entry are separate records, joined by “and”; a condition that tells them apart may be missing. Equal values may be shown once.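 96-well plates; 48 h exposure; 5 concentrations. Endpoints by linear interpolation between flanking doses. Not reached: highest tested concentration assigned. At the GI50, growth is halved. TGI: total growth inhibition.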 Some results are limits rather than exact numbers.

Among the test systems are UACC-62 melanoma; SR leukemia; COLO 205 colon; NCI-H226 lung; MDA-MB-435; RXF 393 renal; HL-60(TB) leukemia; CAKI-1 renal; CCRF-CEM leukemia; K-562 leukemia.
Common to all, as to experiment: growth of human tumour cells (NCI), 48 h

`C=C1CC[C@@H]2[C@](C)(COC(C)=O)[C@H](OC(C)=O)CC[C@@]2(C)[C@@H]1CC(Sc1ccccc1)C1=CCOC1=O` (stereo not given in full): the GI50 in the test with UACC-62 melanoma was 1.3 µM; in the test with SR leukemia, 0.553 µM; with COLO 205 colon, 1.49 µM; with NCI-H226 lung, 2.3 µM; in the test on MDA-MB-435, 1.41 µM; in the test with RXF 393 renal, 1.62 µM. Also, the GI50 in the test on HL-60(TB) leukemia is 0.43 µM; with CAKI-1 renal it was 2.77 µM; in the test with CCRF-CEM leukemia, 0.266 µM; in the test with K-562 leukemia it was 0.699 µM. The TGI came to 3.24 µM in the test on UACC-62 melanoma; 3.66 µM in the test with SR leukemia; 3.98 µM with COLO 205 colon; 5.98 µM with NCI-H226 lung; 3.58 µM in the test on MDA-MB-435; 3.12 µM with RXF 393 renal. Also, the TGI in the test with HL-60(TB) leukemia came to 2.27 µM; with CAKI-1 renal, 11.5 µM; in the test with CCRF-CEM leukemia it was 1.19 µM; with K-562 leukemia, 3.69 µM.
Regarding `O=C(Nc1nc2ccc(C(F)(F)F)cc2s1)c1cc(Cl)ccc1O`, the GI50 was 0.337 µM in the test with UACC-62 melanoma; 1.24 µM in the test with SR leukemia; 1.38 µM in the test on COLO 205 colon; 1.23 µM in the test with NCI-H226 lung; 1.69 µM in the test on MDA-MB-435; 1.76 µM with RXF 393 renal. In addition, the figures for the GI50 in the test with HL-60(TB) leukemia, in the test on CCRF-CEM leukemia and with K-562 leukemia were 1.04 µM, 0.378 µM and 0.351 µM, respectively. Besides, the TGI is 3.52 µM in the test on UACC-62 melanoma; 20.1 µM in the test on SR leukemia; 4 µM in the test with COLO 205 colon; 11.4 µM in the test with NCI-H226 lung; over 100 µM in the test with MDA-MB-435; 11.1 µM in the test on RXF 393 renal. For the same compound, the TGI in the test on HL-60(TB) leukemia is 3.7 µM; in the test on CCRF-CEM leukemia it was 96.5 µM; in the test with K-562 leukemia, over 100 µM.
`COc1ccc(C(C)=O)cc1N1C(=O)C2C(C1=O)C1(c3ccccc3)C(=O)C2(c2ccccc2)C(c2ccc(C)cc2)=C1c1ccc(C)cc1` (stereo not given): the GI50 in the test with UACC-62 melanoma, in the test on SR leukemia, in the test with COLO 205 colon, with NCI-H226 lung, in the test with MDA-MB-435 and in the test with RXF 393 renal was over 100 µM in each case. Moreover, the GI50 with HL-60(TB) leukemia is over 100 µM; with CAKI-1 renal it was 17.6 µM; in the test with CCRF-CEM leukemia, over 100 µM; with K-562 leukemia, over 100 µM. The TGI in the test with UACC-62 melanoma, in the test on SR leukemia, in the test on COLO 205 colon, with NCI-H226 lung, in the test with MDA-MB-435 and with RXF 393 renal was over 100 µM in each case. Also, the TGI in the test with HL-60(TB) leukemia, in the test with CAKI-1 renal, in the test with CCRF-CEM leukemia and with K-562 leukemia was over 100 µM each time.
Turning to `O=C1/C(=C/c2ccc(Br)cc2)COc2ccc(O)c(O)c21`, the GI50 with UACC-62 melanoma was 1.07 µM; in the test on SR leukemia, 0.452 µM; with COLO 205 colon, 1.53 µM; in the test on NCI-H226 lung, 2.01 µM; in the test on MDA-MB-435 it was 0.427 µM; in the test with RXF 393 renal, 1.1 µM. Besides, the GI50 is 0.442 µM in the test with HL-60(TB) leukemia, 0.944 µM with CAKI-1 renal, 0.462 µM with CCRF-CEM leukemia and 0.282 µM with K-562 leukemia. In addition, the TGI in the test on UACC-62 melanoma was 2.4 µM; in the test with SR leukemia, over 100 µM; in the test with COLO 205 colon, 3.18 µM; with NCI-H226 lung, 5.52 µM; in the test on MDA-MB-435, 1.59 µM; in the test with RXF 393 renal, 2.43 µM. Moreover, the TGI is 3.28 µM with HL-60(TB) leukemia, 2.25 µM in the test on CAKI-1 renal, over 100 µM in the test with CCRF-CEM leukemia and over 100 µM with K-562 leukemia.
For the compound `CS(=O)(=O)Nc1ccc2c(c1)oc(=O)c1ccccc12`, the TGI with UACC-62 melanoma, in the test on SR leukemia, in the test with COLO 205 colon, in the test on NCI-H226 lung, with MDA-MB-435 and with RXF 393 renal was over 100 µM each time. In addition, the TGI in the test with HL-60(TB) leukemia, with CAKI-1 renal, in the test on CCRF-CEM leukemia and in the test on K-562 leukemia was over 100 µM each time.
Take `Cn1nc(N)c2cc([C@@H]3Nc4ccc5[nH]ncc5c4[C@H]4C5CCC(C5)[C@@H]34)ccc21` (stereo not given in full): the GI50 is 0.425 µM with UACC-62 melanoma; 0.426 µM in the test on SR leukemia; 0.431 µM in the test with COLO 205 colon; 1.14 µM with NCI-H226 lung; 0.166 µM in the test with MDA-MB-435; 0.227 µM in the test with RXF 393 renal. The GI50 was 0.381 µM in the test with HL-60(TB) leukemia, 0.334 µM in the test with CAKI-1 renal, 0.377 µM with CCRF-CEM leukemia and 0.324 µM in the test with K-562 leukemia. In addition, the TGI in the test on UACC-62 melanoma is 17.7 µM; in the test with SR leukemia it was over 100 µM; with COLO 205 colon, 13 µM; in the test with NCI-H226 lung, 23.5 µM; in the test with MDA-MB-435 it was 0.437 µM; in the test on RXF 393 renal, 0.825 µM. The TGI with HL-60(TB) leukemia was 6.46 µM; with CAKI-1 renal, 33.4 µM; with CCRF-CEM leukemia, over 43.4 µM; in the test on K-562 leukemia it was over 100 µM.
As for `COc1cc(C#CC(=O)OC/C=C/c2ccc3c(c2)OCO3)cc(OC)c1OC`, the TGI in the test on UACC-62 melanoma was determined as 37.2 µM; in the test on SR leukemia it was 40.5 µM; with COLO 205 colon, 35.7 µM; with NCI-H226 lung, 48.5 µM; in the test with MDA-MB-435 it was 38.1 µM; in the test with RXF 393 renal, 30.2 µM. The TGI is 62.9 µM in the test with HL-60(TB) leukemia, 57 µM with CAKI-1 renal, 49.3 µM in the test on CCRF-CEM leukemia and 58.1 µM in the test with K-562 leukemia.
Turning to `CNC(=O)N(C)N=NCCCl`, the TGI with UACC-62 melanoma, in the test with SR leukemia, in the test on COLO 205 colon, with NCI-H226 lung, in the test with MDA-MB-435 and in the test with RXF 393 renal was over 100 µM throughout. Besides, the TGI with HL-60(TB) leukemia, with CAKI-1 renal, in the test on CCRF-CEM leukemia and in the test with K-562 leukemia was over 100 µM throughout.
Take `O/N=C/C1C(OCc2ccccc2)C(OCc2ccccc2)C(OCc2ccccc2)CN1Cc1ccccc1` (stereo not given): the TGI with UACC-62 melanoma is 30.5 µM and > 100 µM; in the test with SR leukemia, over 100 µM; in the test on COLO 205 colon it was 25.2 µM; in the test with NCI-H226 lung it was 33.8 µM and 85.2 µM; with MDA-MB-435 it was 33.6 µM and 27.1 µM; in the test on RXF 393 renal it was 46.1 µM. The TGI in the test with HL-60(TB) leukemia was 80.4 µM; with CAKI-1 renal it was over 100 µM; with CCRF-CEM leukemia, 71.2 µM and > 100 µM; with K-562 leukemia it was 36.6 µM and > 100 µM. The GI50 in the test on SR leukemia is 8.3 µM and 2 µM; in the test on COLO 205 colon, 12.3 µM; in the test with NCI-H226 lung, 13.7 µM and 4.2 µM; in the test on MDA-MB-435, 14.1 µM and 3.14 µM.
Take `COc1ccc(/C=C(/C(=O)N2CCN(c3ccccc3)CC2)c2cc(OC)c(OC)c(OC)c2)cc1O`: the GI50 was 0.332 µM with UACC-62 melanoma; 0.381 µM with SR leukemia; 3.89 µM in the test with COLO 205 colon; 60.9 µM with NCI-H226 lung; 0.15 µM in the test on MDA-MB-435; 0.239 µM in the test with HL-60(TB) leukemia. The figures for the GI50 in the test on CCRF-CEM leukemia and in the test with K-562 leukemia were 0.355 µM and 0.296 µM, respectively. Further, the TGI in the test on UACC-62 melanoma was over 100 µM; in the test with SR leukemia, 58.4 µM; in the test with COLO 205 colon, 22.1 µM; in the test with NCI-H226 lung it was over 100 µM; with MDA-MB-435, 0.514 µM; in the test on HL-60(TB) leukemia, 0.575 µM. In addition, the TGI with CCRF-CEM leukemia and with K-562 leukemia was over 100 µM throughout.
`O=C1c2cccc(NCCCNCCO)c2C(=O)c2cccc(NCCCNCCO)c21`: the TGI in the test with UACC-62 melanoma was 3.25 µM and 4.33 µM; with SR leukemia, 6.25 µM and 7.33 µM; in the test with COLO 205 colon it was 2.67 µM and 3.78 µM; in the test with NCI-H226 lung, 5.11 µM and 2.99 µM; in the test on MDA-MB-435, 3.06 µM; in the test on RXF 393 renal, 5.54 µM and 5.82 µM. Further, the TGI in the test on HL-60(TB) leukemia is 3.86 µM and 6.02 µM; with CCRF-CEM leukemia, 7.09 µM and 6.97 µM; in the test with K-562 leukemia, 18.8 µM and 8.27 µM. Further, the GI50 with SR leukemia is 2.56 µM and 0.532 µM; in the test on NCI-H226 lung it was 1.93 µM and 0.729 µM; in the test on K-562 leukemia, 3.69 µM and 1.05 µM.
For the compound `[Cl][Hg][c]1cc(Br)cc(Br)c1`, the GI50 in the test on UACC-62 melanoma was 1.62 µM; in the test on SR leukemia, 0.866 µM; in the test on COLO 205 colon, 2.14 µM; in the test on NCI-H226 lung, 3.48 µM; in the test with MDA-MB-435, 1.8 µM; with RXF 393 renal, 1.45 µM. Moreover, the GI50 with HL-60(TB) leukemia was 1.95 µM; in the test with CCRF-CEM leukemia, 1.32 µM; with K-562 leukemia, 1.12 µM. In addition, the TGI with UACC-62 melanoma was 3.42 µM; in the test with SR leukemia it was 3.52 µM; in the test on COLO 205 colon it was 4.97 µM; in the test on NCI-H226 lung, 8.84 µM; with MDA-MB-435 it was 3.82 µM; in the test with RXF 393 renal it was 2.85 µM. The TGI in the test with HL-60(TB) leukemia was found to be 4.24 µM; in the test with CCRF-CEM leukemia it was 4.22 µM; in the test with K-562 leukemia, 3.81 µM.
Take `S=C1NC2(CCCCCC2)NN1c1ccccc1`: the TGI in the test with UACC-62 melanoma was over 100 µM; with SR leukemia it was over 100 µM; in the test on COLO 205 colon, 0.431 µM; in the test on NCI-H226 lung, over 100 µM; in the test with MDA-MB-435, over 100 µM; in the test on HL-60(TB) leukemia it was 3.64 µM. Moreover, the TGI was over 100 µM in the test with CAKI-1 renal, over 64.9 µM in the test with CCRF-CEM leukemia and 16.6 µM in the test on K-562 leukemia.
Turning to `CCN(CC)c1ccc2c(c1)OC(N)=C(C#N)C2c1cc(OC)c2c(c1)OCO2` (stereo not given), the GI50 in the test on UACC-62 melanoma was under 0.0184 µM; in the test on SR leukemia it was under 0.017 µM; in the test on COLO 205 colon it was 0.0377 µM; in the test on NCI-H226 lung, 0.047 µM; in the test on MDA-MB-435, under 0.0108 µM; with HL-60(TB) leukemia, 0.0269 µM. The GI50 in the test with CAKI-1 renal was 0.108 µM; in the test on CCRF-CEM leukemia, 0.0308 µM; with K-562 leukemia, under 0.0175 µM. Further, the TGI in the test with UACC-62 melanoma was determined as 13.5 µM; in the test with SR leukemia, 1.98 µM; with COLO 205 colon, 0.424 µM; with NCI-H226 lung, 0.942 µM; with MDA-MB-435, 0.0276 µM; with HL-60(TB) leukemia it was 0.141 µM. Besides, the TGI with CAKI-1 renal was 59.1 µM; in the test on CCRF-CEM leukemia, 1.71 µM; with K-562 leukemia it was 4.32 µM.
